Legend:
U87 cells [1] = test: γ-H2A.X histone labelling with FITC-labeled antibody; format: cell-based, human; conditions: 24 hrs
Experimental: FITC-labeled Anti-H2A.X histone monoclonal antibody (BioLegend, San Diego, Calif.) was used as an internal control for DNA breaks, at a 1/50 dilution after the samples were blocked with 10% horse serum.
(§1) Human glioblastoma cells (U87) (American Type Culture Collection, Manassas, Va., USA), and grown as recommended in DMEM with penicillin/streptomycin and 10% FBS. Following 3-weeks' growth and splitting, 5 mL of cells were plated into microscope slide chambers (Lab-Tek) at […], and were allowed to grow in the slide chambers for 24 hrs, until they became confluent. […] 24 hrs after treatment, all cells were fixed with 2% PFA for 1 hr, washed 3× in 0.1 M PBS, then incubated in 0.1% Triton X-100® for 6 min and finally washed in 0.1 M PBS buffer. Each slide was assayed for double-strand blunt (red) and overhanging (blue) DNA damage, and counterstained for DNA with YO-PRO-1® (green) or for γH2A.X with an FITC-labeled IgG antibody (green).
After incubation with 10% horse sera and washing, Ser139-phosphorylated H2A.X histone was imaged using an FITC-labeled monoclonal antibody (Biolegend, San Diego, Calif., USA) (1:500) following the methods of the manufacturer. Immune cell marker CD3ε was imaged using an FITC-labeled monoclonal antibody (Santa Cruz Biotechnologies, Santa Cruz, Calif.) (also at 1:500) as recommended by the manufacturer.

U87 cells [2] = test: LD50 of stressors on the cells over a 24-hr incubation; format: cell-based, human
U87 cells [3] = test: Fpg-ddTUNEL assay (oxidized/acylated DNA bases), with or without NaBH4 reduction; format: cell-based, human; conditions: for Fpg-ddTUNEL: approximate concentration of the probe in the cells: U87 cells following treatment, nominal path length of 6 μm, control 0.9; for effect of NaBH4 reduction on the Fpg-ddTUNEL signal / oxo-base levels: ethanolic NaBH4
Experimental: Each sample was incubated in 25 mM sodium borohydride in 70% ethanol for 30 min. The sample was then washed twice in 0.1 M PBS. Typically, a slide box was employed, and it was half-filled with reducing solution so that half the sample(s) on the slide were reduced.
The sample was washed twice in 10 mM HEPES, 10 mM NaCl, 2 mM EDTA and 0.1% BSA and then ≈50 μL of the same buffer containing 100 U/mL of Fpg was applied to each of the sections, which were then incubated in a humidified box for ≧4 hr. The sample was washed twice in 100 mM PBS, and then twice in NEBuffer3. Approximately 50 μL of the same buffer containing 100 U/mL of CIAP was then applied to each section, and incubated for ≧2 hrs.
1. After completing both ddTUNEL and CIAP-ddTUNEL, each sample is washed twice in Fpg-buffer (Affymetrix) for 10 min.
2. Samples are then incubated in 100 U/mL Fpg (Affymetrix) in Fpg Buffer for 2 hr at 37° C. (or, alternatively, overnight at room temperature).
Following ddTUNEL and CIAP-ddTUNEL, capping 3′OH/3′PO4 ends, samples were washed twice in 10 mM HEPES, 10 mM NaCl, 2 mM EDTA and 0.1% BSA and then ≈50 μL of the same buffer containing 100 U/mL of Fpg was applied to each of the sections, and then incubated in a humidified box ≧4 hrs. Each sample was washed twice in 100 mM PBS, twice in NEBuffer3 and ≈50 μL of the same buffer containing 100 U/mL of CIAP was applied to each section and incubated for ≧2 hr; samples then underwent a third round of ddTUNEL.
(§2) U87 human glioblastoma cells were grown in DMEM with penicillin/streptomycin and 10% fetal bovine serum (FBS) (Invitrogen). Following 3-weeks' growth, 5 mL of cells were plated into slide chambers (Lab-Tek, Nalge Nunc International, Rochester, N.Y., USA) at 2×10^5 cells per mL, and grown for 24 hrs at 37° C. in a 5% CO2 incubator. […] 24-hrs' later, cells were fixed with 2% PFA, then permeabilized in 0.1% Triton X-100® as described above.

U87 cells [4] = test: ddTUNEL assay (3′OH DNA ends); format: cell-based, human; conditions: for ddTUNEL: approximate concentration of the probe in the cells: U87 cells following treatment, nominal path length of 6 μm, control 3.7
Experimental: ddTUNEL reaction buffer was prepared fresh daily by diluting a previously-frozen) stock solution of ddTUNEL buffer 1:5, and solution of cobalt chloride 1:25.
Stock reaction buffer, 5×: 125 mM Tris-HCl, 1 M sodium cacodylate, 1.25 mg/mL BSA, pH 6.6. Stock reaction CoCl2 solution, 25×: 25 mM cobalt chloride.
1. Wash samples twice in ddTUNEL reaction buffer for 10 min each.
2. Incubate sections in ddTUNEL reaction solution for 1-2 h at 37-40° C. in humidified chamber or overnight at room temperature.
5. Incubate with fluorescently labeled avidin or streptavidin ([…]) for 30 min.
as §2

U87 cells [5] = test: in situ ligation of blunt-ended and 3′-T-OH overhanging oligonucleotide probes (DNA breaks); format: cell-based, human; conditions: for number of 3′-T-OH overhang ends / overhanging cuts / number of blunt-ended breaks: 24 hrs after treatment at LD50 concentration; for blebbing of treated cells: microscopy
Experimental: U87, human glioblastoma, cells were obtained from the American TypeCulture Collection (ATCC) Manassas, Va. and grown as recommended in DMEM with penicillin/streptomycin and 10% FBS. Following 3 weeks of growth and splitting cells were plated into slide chambers (Lab-Tek Nalge Nunc International, Rochester, N.Y., USA) at 2×10^5 cells per mL, and were allowed to grow thereon for 24 hrs until confluence was reached.
Twenty-four hrs after treatment, all cells were fixed with 4% PFA for one hr and washed 3× in 0.1 M PBS, incubated in 0.1% Triton-X100® for 6 min and then washed in 0.1 M PBS buffer. Each slide was assayed for double-strand DNA blunt-ended and overhanging 3′-OH ends, and counterstained for DNA with YO-PRO-1®.
The 3′-OH T specific overhang and blunt-ended DNA probes, shown in FIG. 2A and FIG. 2B, were ligated to the known oligonucleotide standard phantoms the amine apex oligoneuleotides, or alternatively, to fixed permeabilized U87 cells. The sections were pre-incubated in the ligation buffer without the probe (66 mM Tris-HCl, pH 7.5, 5 mM MgCl2, 0.1 mM dithioerythritol, 1 mM ATP, and 15% polyethylene glycol-8000) to ensure even saturation. The buffer was aspirated, and the full ligation mix containing the ligation buffer with probe, 35 μg/μL, and 0.5 U/μL T4 DNA ligase (New England BioLabs; Ipswich, Mass., USA) was applied to the sections, which were then incubated in a humidified box overnight.
The 3′-OH T-specific overhanging- and blunt-ended DNA probes shown in FIG. 11B were ligated to oligonucleotide standard phantoms, mammary gland or to fixed, permeabilized U87 cells. The sections were pre-incubated with ligation buffer in the absence of the probe (66 mM-Tris HCl, pH 7.5, 5 mM MgCl2, 0.1 mM dithioerythritol, 1 mM ATP, and 15% polyethylene glycol-8000) to ensure even saturation. The buffer was aspirated and the full ligation mix [ligation buffer+probe (35 μg/μL) and T4 DNA ligase (0.5 U/μL)] was applied to the sections, which were then incubated in a humidified box overnight. Controls consisted of probe-ligated phantoms, which were then incubated with either EcoRI or BamHI, in the appropriate buffer for 4 hrs, washed, cover-slipped using Fluoromount-G™ (SouthernBiotech), and then sealed with nail varnish.
as §1

[6] = tested on: normal human astrocytes (NHA); conditions: ethylmercury treatment (FIG. 21)
Experimental: Normal human astrocytes (NHA) were obtained from Lonza (Walkersville, Md., USA) and grown subject to their recommendations. NHA were grown to confluency in Astrocyte Cell Basal Medium supplemented with 3% FBS, Glutamine, Insulin, fhEGF, GA-1000 and ascorbic acid in 16-well Lab-Tek slide chambers (Nalge Nunc, Rochester, N.Y., USA), in a total volume of 240 μL.
NHA were incubated for 1 hour with probes before fixation. Fixation in buffered paraformaldehyde (PFA) was performed in two stages. Firstly, a 50-4 aliquot of ice-cold 8% PFA was added to each well, then gently aspirated and the wells were twice washed with ice-cold 2% PFA and then allowed to completely fix at 4° C. After fixation, cells were washed twice in 1×PBS (Thermo Fisher Scientific, Rockford, Ill., USA). The tanks were then removed from the slides, the well area covered with Fluoromount-G (SouthernBiotech, Ill., USA), cover-slipped and sealed with nail varnish.
3% FCS was present in the NHA medium throughout the time-course. To generate the time-course shown in FIG. 17A and FIG. 17B, NHA were exposed to Mitotracker, H2DCFAM and Hoechst at t=0.

Compound	LD50 (U87 cells [2])	Fpg-ddTUNEL: approximate concentration of the probe in the cells (U87 cells [3])	effect of NaBH4 reduction on the Fpg-ddTUNEL signal / oxo-base levels (U87 cells [3]; U87 cells)	ddTUNEL: approximate concentration of the probe in the cells (U87 cells [4])	number of 3′-T-OH overhang ends / overhanging cuts (U87 cells [5])	number of blunt-ended breaks (U87 cells [5])	blebbing of treated cells (U87 cells [5]; 24 hrs)	other results
O=NN(CCCl)C(=O)NCCCl [Carmustine, N,N′-bis(2-chloroethyl)-N-nitroso-urea]	2.5 µM	5.2 µM	unaltered by reduction	22.8 µM	~350 per million base pairs	approximately 900 per million base pairs	formation of small blebs	difference in cytosolic γ-H2A.X levels, carmustine-treated vs temozolomide-treated cells (U87 cells [1]): 10 fold; transfer of γ-H2A.X into the cytosol (U87 cells [1]): transfer of γ-H2A.X into the cytosol; increase in Fpg-ddTUNEL (U87 cells [3]; U87 cells, vs control): six-fold; increase in ddTUNEL (U87 cells [4]; U87 cells, vs control): six-fold; change in blunt-ended breaks (U87 cells [5]; 24 hrs, Example 2): massive increases; increase in levels of overhangs (U87 cells [5]; 24 hrs, Example 2): more than an order of magnitude
OO [H2O2, hydrogen peroxide]	1000 µM	4.5 µM	redox sensitive	9.4 µM	–	–	formation of blebs	–
CCc1c2c(nc3ccc(OC(=O)N4CCC(N5CCCCC5)CC4)cc13)-c1cc3c(c(=O)n1C2)COC(=O)[C@]3(O)CC [Irinotecan, (S)-4,11-diethyl-3,4,12,14-tetrahydro-4-hydroxy-3,14-dioxo1H-pyrano[3′,4′:6,7]-indolizino[1,2-b]quinolin-9-yl-[1,4′bipiperidine]-1′-carboxylate]	–	1.7 µM	unaltered by reduction	7.4 µM	119 per million base pairs	285 per million base pairs	–	difference in overhang breaks vs control cells (U87 cells [5]; 24 hrs, Example 2): greater than 50 ×; increase in number of blunt-ended breaks (U87 cells [5]; vs control cells (FIG. 7)): more than 50%; increase in number of overhanging breaks (U87 cells [5]; vs control cells (FIG. 7)): ~3 fold
C[n+]1ccc(-c2cc[n+](C)cc2)cc1 [Paraquat]	300 µM	6.3 µM	–	37.2 µM	–	–	no blebbing apparent	share of γ-H2AX found in the cytosol (U87 cells [1]): 65%; blebbing of treated cells (U87 cells [5]; 24 hrs, listed as paraquat): no evidence of blebbing
Cn1nnc2c(C(N)=O)ncn2c1=O [Temozolomide]	25 µM	13.7 µM	–	8.7 µM	~350 per million base pairs	approximately 900 per million base pairs	–	difference in levels of blunt-end breaks vs control cells (U87 cells [5]; 24 hrs, Example 2): greater than 30 ×
C[CH2][Hg] [ethylmercury]	–	–	–	–	–	–	–	formation of dichlorofluorescein from H2DCF-AM greater than superoxide/carbonyl formation [6]: approximately 20%

— patent publication US20130157261A1, “Compositions and Methods for Quantitative Histology, Calibration of Images in Fluorescence Microscopy, and ddTUNEL Analyses” (The Methodist Hospital Research Institute, priority 2011, published 2013)
